Assay results: patent US20040110802A1, “Antibacterial benzoic acid derivatives” (priority 2002, published 2004)
Converted amounts (≈) assume the structure as drawn.

Tested on: SAUR 9218
Experiment: MIC Test Method, standard agar dilution
Format: cell-based
Conditions: agar dilution, Mueller Hinton agar, incubated overnight at 35° C.; lowest concentration that inhibits visible growth; read-out: SAUR 9218 MIC
How it was run: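 MIC (μg/ml) was read as the lowest drug level without visible growth of SAUR 9218 after overnight incubation at 35 °C. Inocula of about 10^4 to 10^5 cells per spot were applied to Mueller Hinton agar containing 2-fold serial compound dilutions.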

SMILES	MIC
CCCn1c(C(=O)Nc2ccc(C#N)cc2C(=O)O)cc2ccccc21	2 µg/mL (≈ 5.76 µM)
Cc1c(S(=O)(=O)NC2CCN(Cc3ccccc3)CC2)csc1C(=O)Nc1ccc(Br)cc1C(=O)O	> 128 µg/mL
N#Cc1ccc(NC(=O)c2cncc(-c3ccccc3)c2)c(C(=O)O)c1	16 µg/mL (≈ 46.6 µM)
N#Cc1ccc(NC(=O)c2cnc(-c3ccccc3)cn2)c(C(=O)O)c1	64 µg/mL (≈ 186 µM)
O=C(Nc1ccc(Br)cc1C(=O)O)c1cncc(SCc2ccccc2)n1	16 µg/mL (≈ 36 µM)
N#Cc1ccc(NC(=O)c2cc3ccccc3n2Cc2ccccc2)c(C(=O)O)c1	8 µg/mL (≈ 20.2 µM)
N#Cc1ccc(NC(=O)c2ccc(Cl)nc2)c(C(=O)O)c1	16 µg/mL (≈ 53 µM)
Cc1ccccc1-c1cncc(C(=O)Nc2ccc(C#N)cc2C(=O)O)c1	8 µg/mL (≈ 22.4 µM)
N#Cc1ccc(NC(=O)c2noc3ccc(NCC(O)CO)cc23)c(C(=O)O)c1 (centres unmarked)	2 µg/mL (≈ 5.05 µM)
Cc1sc(C(=O)Nc2ccc(C#N)cc2C(=O)O)cc1S(=O)(=O)N1CCN(Cc2ccccc2)CC1	> 128 µg/mL
N#Cc1ccc(NC(=O)c2nc(-c3ccccc3)cs2)c(C(=O)O)c1	8 µg/mL (≈ 22.9 µM)
Cc1coc2cnc(C(=O)Nc3ccc(C#N)cc3C(=O)O)cc12	16 µg/mL (≈ 49.8 µM)
Cc1sc(C(=O)Nc2ccc(Br)cc2C(=O)O)cc1S(=O)(=O)N(C)c1ccc(Cl)cc1	2 µg/mL (≈ 3.68 µM)
CC(C)n1c(C(=O)Nc2ccc(C#N)cc2C(=O)O)cc2ccccc21	2 µg/mL (≈ 5.76 µM)
COCC(=O)Nc1ccc2onc(C(=O)Nc3ccc(C#N)cc3C(=O)O)c2c1	4 µg/mL (≈ 10.1 µM)
CN(c1ccc(Cl)cc1)S(=O)(=O)c1cc(C(=O)Nc2ccc(Br)cc2C(=O)O)c[n+]([O-])c1	8 µg/mL (≈ 14.8 µM)
Cc1sc(C(=O)Nc2ccc(C#N)cc2C(=O)O)cc1S(=O)(=O)N1CC(C)OC(C)C1 (centres unmarked)	16 µg/mL (≈ 34.5 µM)
Cc1cc(C(=O)Nc2ccc(Br)cc2C(=O)O)c(C)o1	> 128 µg/mL
Cc1sc(C(=O)Nc2ccc(C#N)cc2C(=O)O)cc1S(=O)(=O)N1CCCC1	16 µg/mL (≈ 38.1 µM)
COCc1onc(C(=O)Nc2ccc(C#N)cc2C(=O)O)c1COC	16 µg/mL (≈ 46.3 µM)
Cc1sc(C(=O)Nc2ccc(C#N)cc2C(=O)O)cc1S(=O)(=O)N1CCN(c2ncccn2)CC1	64 µg/mL (≈ 125 µM)
N#Cc1ccc(NC(=O)c2noc3cc(-c4ccc([N+](=O)[O-])cc4C(F)(F)F)c([N+](=O)[O-])cc23)c(C(=O)O)c1	0.03 µg/mL (≈ 0.0554 µM)
Cc1sc(C(=O)Nc2ccc(C#N)cc2C(=O)O)cc1S(=O)(=O)N(C)CCC#N	128 µg/mL (≈ 296 µM)

SMILES	MIC
Cc1sc(C(=O)Nc2ccc(C#N)cc2C(=O)O)cc1S(=O)(=O)N(C)CCc1ccccc1	4 µg/mL (≈ 8.27 µM)
COc1ncc(C#Cc2cncc(C(=O)Nc3ccc(C#N)cc3C(=O)O)c2)c(OC)n1	> 128 µg/mL
O=C(Nc1ccc(Br)cc1C(=O)O)c1cccc(Br)n1	64 µg/mL (≈ 160 µM)
N#Cc1ccc(NC(=O)c2cc(-c3ccccc3Oc3ccccc3-c3ccccc3)on2)c(C(=O)O)c1	> 128 µg/mL
N#Cc1ccc(NC(=O)c2cc3cccc(NC(=O)c4csc(SCc5ccccc5)n4)c3[nH]2)c(C(=O)O)c1	> 128 µg/mL
O=C(Nc1ccc(Br)cc1C(=O)O)c1ccco1	> 128 µg/mL
O=C(Nc1ccc(Br)cc1C(=O)O)c1csc(S(=O)(=O)N2CC3CC2CN3Cc2ccccc2)c1 (centres unmarked)	> 128 µg/mL
Nc1ccc(CCNS(=O)(=O)c2cc(C(=O)Nc3ccc(Br)cc3C(=O)O)cs2)cc1	128 µg/mL (≈ 244 µM)
COc1ccc(OC)c(NC(=O)Nc2ccc3cc(C(=O)Nc4ccc(C#N)cc4C(=O)O)n(C)c3c2)c1	2 µg/mL (≈ 3.89 µM)
O=C(Nc1ccc(Br)cc1C(=O)O)c1cccc(SCc2ccccc2)n1	16 µg/mL (≈ 36.1 µM)
CC(C)(C)c1ccc(-c2cncc(C(=O)Nc3ccc(C#N)cc3C(=O)O)c2)cc1	32 µg/mL (≈ 80.1 µM)
O=C(Nc1ccc(Cl)cc1C(=O)O)c1cc(-c2ccccc2C(F)(F)F)on1	1 µg/mL (≈ 2.43 µM)
N#Cc1ccc(NC(=O)c2cc3ccccc3[nH]2)c(C(=O)O)c1	2 µg/mL (≈ 6.55 µM)
N#Cc1ccc(NC(=O)c2cncc(-c3cccc(C(F)(F)F)c3)c2)c(C(=O)O)c1	16 µg/mL (≈ 38.9 µM)
O=C(Nc1ccc(I)cc1C(=O)O)c1cnc(SCc2ccccc2)cn1	1 µg/mL (≈ 2.04 µM)
O=C(O)c1cc(Cl)ccc1NC(=O)c1cc2ccccc2n1CCCc1ccccc1	4 µg/mL (≈ 9.24 µM)
CCCn1c(C(=O)Nc2ccc(Cl)cc2C(=O)O)cc2ccccc21	4 µg/mL (≈ 11.2 µM)
N#Cc1ccc(NC(=O)c2ccsc2)c(C(=O)O)c1	> 128 µg/mL
O=C(Nc1ccc(-c2ccccc2C(F)(F)F)cc1C(=O)O)c1cc(-c2ccccc2F)on1	8 µg/mL (≈ 17 µM)
CC1(C(=O)Nc2cccc3cc(C(=O)Nc4ccc(C#N)cc4C(=O)O)[nH]c23)CC1	2 µg/mL (≈ 4.97 µM)
COc1cc(C(=O)Nc2ccc(Br)cc2C(=O)O)nn1Cc1ccccc1	128 µg/mL (≈ 297 µM)
Cc1cccc2cc(C(=O)Nc3ccc(C#N)cc3C(=O)O)[nH]c12	2 µg/mL (≈ 6.26 µM)

More lines, in order of falling MIC, values ahead:

MIC	SMILES
1 µg/mL (≈ 2.35 µM)	N#Cc1ccc(NC(=O)c2noc3ccc(NC(=O)c4ccccc4)cc23)c(C(=O)O)c1
1 µg/mL (≈ 2.27 µM)	N#Cc1ccc(NC(=O)c2cc3cccc(NC(=O)c4ccccc4O)c3[nH]2)c(C(=O)O)c1
1 µg/mL (≈ 2.57 µM)	CON=C1CCn2c(C(=O)Nc3ccc(C#N)cc3C(=O)O)cc3cccc1c32
1 µg/mL (≈ 2.61 µM)	N#Cc1ccc(NC(=O)c2ncc(-c3cccc(Cl)c3)s2)c(C(=O)O)c1
1 µg/mL (≈ 2.78 µM)	N#Cc1ccc(NC(=O)c2cc3cccc4c3n2CCC4=O)c(C(=O)O)c1
1 µg/mL (≈ 3 µM)	CCn1c(C(=O)Nc2ccc(C#N)cc2C(=O)O)cc2ccccc21
1 µg/mL	COCC(C)NCC(O)COc1cccc2cc(C(=O)Nc3ccc(C#N)cc3C(=O)O)n(C)c12.Cl (centres unmarked)
1 µg/mL (≈ 2.03 µM)	N#Cc1ccc(NC(=O)c2cc3cccc(NC(=O)c4cc(-c5ccccc5)on4)c3[nH]2)c(C(=O)O)c1
1 µg/mL (≈ 2.34 µM)	O=C(Nc1ccc(Br)cc1-c1noc(=O)[nH]1)c1cc(-c2ccccc2)on1
1 µg/mL (≈ 3.19 µM)	CC(C)(C)c1cc(C(=O)Nc2ccc(C#N)cc2C(=O)O)no1
1 µg/mL (≈ 3.12 µM)	N#Cc1ccc(NC(=O)c2cc3cccc(N)c3[nH]2)c(C(=O)O)c1
0.5 µg/mL (≈ 1.04 µM)	Cn1c(C(=O)Nc2ccc(C#N)cc2C(=O)O)cc2ccc(NS(=O)(=O)c3cccs3)cc21
0.5 µg/mL (≈ 1.2 µM)	COc1ccc(-c2cc(C(=O)Nc3ccc(Br)cc3C(=O)O)no2)cc1
0.5 µg/mL (≈ 1.04 µM)	CCOc1ccc(CC(=O)Nc2cccc3cc(C(=O)Nc4ccc(C#N)cc4C(=O)O)[nH]c23)cc1
0.5 µg/mL (≈ 1.14 µM)	CCCCCCSc1ccc(C(=O)Nc2ccc(Br)cc2C(=O)O)nc1
0.5 µg/mL (≈ 1.34 µM)	N#Cc1ccc(NC(=O)c2cc(OCc3ccccc3)ccn2)c(C(=O)O)c1
0.5 µg/mL (≈ 1.04 µM)	N#Cc1ccc(NC(=O)c2noc3cc(NS(=O)(=O)c4ccc(F)cc4)ccc23)c(C(=O)O)c1
0.5 µg/mL (≈ 1.15 µM)	Cn1c(C(=O)Nc2ccc(C#N)cc2C(=O)O)cc2cccc(OCC3CCCCO3)c21 (centres unmarked)
0.5 µg/mL (≈ 1.08 µM)	N#Cc1ccc(NC(=O)c2noc3cc(OS(=O)(=O)c4ccccc4)ccc23)c(C(=O)O)c1
0.5 µg/mL (≈ 0.813 µM)	Cn1c(C(=O)Nc2ccc(C#N)cc2C(=O)O)cc2ccc(N(S(=O)(=O)c3ccccc3)S(=O)(=O)c3ccccc3)cc21
0.5 µg/mL (≈ 1.37 µM)	CCCCSc1cnc(C(=O)Nc2ccc(Cl)cc2C(=O)O)cn1

MIC	SMILES
0.5 µg/mL (≈ 1.15 µM)	CCCCCCOc1ccccc1-c1cc(C(=O)Nc2ccc(C#N)cc2C(=O)O)no1
0.5 µg/mL (≈ 1.35 µM)	COC(=O)CSc1ccc(C(=O)Nc2ccc(C#N)cc2C(=O)O)cn1
0.5 µg/mL (≈ 1.07 µM)	CN(C(=O)Nc1ccc2cc(C(=O)Nc3ccc(C#N)cc3C(=O)O)n(C)c2c1)c1ccccc1
0.5 µg/mL (≈ 1.18 µM)	CC(=O)c1ccccc1-c1ccc2onc(C(=O)Nc3ccc(C#N)cc3C(=O)O)c2c1
0.25 µg/mL (≈ 0.516 µM)	CCSc1ccc(C(=O)Nc2cccc3cc(C(=O)Nc4ccc(C#N)cc4C(=O)O)[nH]c23)cc1
0.25 µg/mL (≈ 0.593 µM)	COCC(C)Oc1ccccc1-c1cc(C(=O)Nc2ccc(C#N)cc2C(=O)O)no1 (centres unmarked)
0.25 µg/mL (≈ 0.627 µM)	CCCCCCCSc1cnc(C(=O)Nc2ccc(C#N)cc2C(=O)O)cn1
0.25 µg/mL (≈ 0.559 µM)	Cn1c(C(=O)Nc2ccc(C#N)cc2C(=O)O)cc2cccc(O/C=C3/COC(C)(C)O3)c21
0.25 µg/mL (≈ 0.562 µM)	N#Cc1ccc(NC(=O)c2cc3cccc(NC(=O)CCC4CCCC4)c3[nH]2)c(C(=O)O)c1
0.125 µg/mL (≈ 0.302 µM)	N#Cc1ccc(NC(=O)c2noc3cc(-c4cccc(CO)c4)ccc23)c(C(=O)O)c1
0.125 µg/mL (≈ 0.331 µM)	N#Cc1ccc(NC(=O)c2cc(-c3ccc4c(c3)OCO4)on2)c(C(=O)O)c1
0.125 µg/mL (≈ 0.285 µM)	N#Cc1ccc(NC(=O)c2cc3cccc(NC(=O)Cc4ccccc4)c3[nH]2)c(C(=O)O)c1
0.125 µg/mL (≈ 0.324 µM)	N#Cc1ccc(NC(=O)c2noc3ccc(Br)cc23)c(C(=O)O)c1
0.125 µg/mL (≈ 0.244 µM)	N#Cc1ccc(NC(=O)c2ccc(SCCCOc3ccc(Br)cc3)nc2)c(C(=O)O)c1
0.125 µg/mL (≈ 0.333 µM)	N#Cc1ccc(NC(=O)c2cc(CCCc3ccccc3)on2)c(C(=O)O)c1
0.125 µg/mL (≈ 0.337 µM)	CC(C)CCSc1cnc(C(=O)Nc2ccc(C#N)cc2C(=O)O)cn1
0.125 µg/mL (≈ 0.256 µM)	N#Cc1ccc(NC(=O)c2cc3cccc(NC(=O)Cc4cccc5ccccc45)c3[nH]2)c(C(=O)O)c1
0.125 µg/mL (≈ 0.223 µM)	Cn1c(C(=O)Nc2ccc(I)cc2C(=O)O)cc2cccc(S(=O)(=O)c3ccccc3)c21
0.125 µg/mL (≈ 0.262 µM)	N#Cc1ccc(NC(=O)c2noc3ccc(NS(=O)(=O)Cc4ccccc4)cc23)c(C(=O)O)c1
0.0075 µg/mL (≈ 0.0121 µM)	CC(=O)Nc1ccc(-c2cc3onc(C(=O)Nc4ccc(Br)cc4C(=O)O)c3cc2NC(C)=O)c(C(F)(F)F)c1
